Results from publication PMC4227718 (Journal of the American Chemical Society, 2014).

What was measured:
[1] = biological target: Pin1 (Homo sapiens, UniProt Q13526, S16A/Y23A); assay: Fluorescence anisotropy binding to Pin1
[2] = system: HeLa cells; assay: MTT cell proliferation assay; format: cell-based; settings: 0-20 μM, 72 h

Pin1 inhibitory activity [1]: abolished the Pin1 inhibitory activity
Substance: bicyclo[Tm(D-Ala-Sar-D-Thr-D-Ala-Nal-Arg-Ala-D-Ala)-Dap-(Phe-Nal-Arg-Arg-Arg-Arg-Dap)]-Lys-NH2 [peptide 9]
Effect on HeLa cell growth [2]: no effect
